The test system of one assay is DAT. Particulars: read-out: binding affinity toward DAT IC50; [3H]WIN-35,428; cited from earlier work.
The conditions of assay [1]: cited from earlier work.
Assay [2] concerns the target serotonin transporters (SERT) (Rattus norvegicus, UniProt P31652). Put plainly: [3H]serotonin uptake inhibition via SERT in rat brain synaptosomes. The assay is classed as cell-based.
Assay [3] deals with dopamine transporters (DAT) (Rattus norvegicus, UniProt P23977). Put plainly: [3H]dopamine uptake inhibition via DAT in rat brain synaptosomes. The assay is classed as cell-based.
The target in assay [4] is norepinephrine transporters (NET) (Rattus norvegicus, UniProt Q63380). Put plainly: [3H]norepinephrine uptake inhibition via NET in rat brain synaptosomes. The format is cell-based. As to conditions: times less potent, from IC50 values.
Setting [5] is: read-out: [3H]5-HT uptake via SERT IC50, rat brain synaptosomes, 5 nM [3H]serotonin, mean ± SD, n = 3.

The values that follow come from article PMC5378611 (Drug testing and analysis, 2017).

Read-outs that look alike come from different tables or passages of the source.

One may read the IC50 as the concentration needed to halve the response being measured.

Sequence of serotonin transporters (SERT) (P31652 whole entry): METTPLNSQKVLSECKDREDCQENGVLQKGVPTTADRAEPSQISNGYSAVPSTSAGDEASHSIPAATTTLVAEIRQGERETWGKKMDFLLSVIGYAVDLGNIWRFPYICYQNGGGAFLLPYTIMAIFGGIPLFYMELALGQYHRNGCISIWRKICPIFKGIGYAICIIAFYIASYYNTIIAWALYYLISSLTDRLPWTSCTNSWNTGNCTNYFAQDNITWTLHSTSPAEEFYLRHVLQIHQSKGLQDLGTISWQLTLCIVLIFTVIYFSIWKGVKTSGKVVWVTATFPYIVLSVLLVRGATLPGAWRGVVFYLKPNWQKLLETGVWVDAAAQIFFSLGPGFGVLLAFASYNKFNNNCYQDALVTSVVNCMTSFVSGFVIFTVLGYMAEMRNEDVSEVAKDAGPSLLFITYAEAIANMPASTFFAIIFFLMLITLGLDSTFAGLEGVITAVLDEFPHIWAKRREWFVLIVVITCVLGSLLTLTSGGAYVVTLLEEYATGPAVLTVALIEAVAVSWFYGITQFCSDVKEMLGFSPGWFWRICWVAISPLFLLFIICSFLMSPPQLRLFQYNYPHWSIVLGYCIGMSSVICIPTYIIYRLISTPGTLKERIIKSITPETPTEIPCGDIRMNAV
Sequence of dopamine transporters (DAT) (P23977 whole entry): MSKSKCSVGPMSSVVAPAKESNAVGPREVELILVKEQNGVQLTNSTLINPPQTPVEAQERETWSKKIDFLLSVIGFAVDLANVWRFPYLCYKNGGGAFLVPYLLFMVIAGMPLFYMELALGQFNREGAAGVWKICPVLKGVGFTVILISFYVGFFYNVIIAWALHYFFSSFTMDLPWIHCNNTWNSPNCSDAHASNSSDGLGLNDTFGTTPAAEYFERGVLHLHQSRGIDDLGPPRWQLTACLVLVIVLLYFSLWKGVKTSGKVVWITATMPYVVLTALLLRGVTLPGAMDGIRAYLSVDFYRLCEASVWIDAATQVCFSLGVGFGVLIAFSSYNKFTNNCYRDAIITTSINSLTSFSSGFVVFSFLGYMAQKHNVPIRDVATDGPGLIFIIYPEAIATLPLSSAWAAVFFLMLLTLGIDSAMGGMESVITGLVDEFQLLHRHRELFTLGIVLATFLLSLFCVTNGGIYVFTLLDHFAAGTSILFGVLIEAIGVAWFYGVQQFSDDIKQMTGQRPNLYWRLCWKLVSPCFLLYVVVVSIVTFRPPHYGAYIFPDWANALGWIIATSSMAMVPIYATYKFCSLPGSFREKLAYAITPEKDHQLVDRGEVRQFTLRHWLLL
Sequence of norepinephrine transporters (NET) (Q63380 1-617): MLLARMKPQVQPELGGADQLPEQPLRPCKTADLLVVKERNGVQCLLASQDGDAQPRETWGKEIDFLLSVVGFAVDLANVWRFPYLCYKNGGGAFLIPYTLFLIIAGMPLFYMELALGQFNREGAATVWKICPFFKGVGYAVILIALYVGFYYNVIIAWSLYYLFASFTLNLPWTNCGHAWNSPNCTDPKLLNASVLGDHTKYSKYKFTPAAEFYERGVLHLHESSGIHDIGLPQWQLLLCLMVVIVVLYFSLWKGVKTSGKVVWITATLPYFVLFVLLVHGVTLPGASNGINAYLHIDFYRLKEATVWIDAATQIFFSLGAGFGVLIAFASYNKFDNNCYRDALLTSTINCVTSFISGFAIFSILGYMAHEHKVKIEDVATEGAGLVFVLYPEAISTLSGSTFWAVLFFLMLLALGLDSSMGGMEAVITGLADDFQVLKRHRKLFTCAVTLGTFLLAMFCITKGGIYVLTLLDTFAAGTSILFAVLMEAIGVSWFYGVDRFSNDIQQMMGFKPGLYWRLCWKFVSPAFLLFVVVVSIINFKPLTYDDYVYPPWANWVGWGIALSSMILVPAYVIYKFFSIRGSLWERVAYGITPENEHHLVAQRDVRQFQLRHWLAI

Turning to `COC(=O)[C@H](c1ccc(F)cc1)[C@H]1CCCCN1` (racemic) [(±)-threo-4F-MPH, 4-Fluoromethylphenidate], the results for the IC50 (in the assay with DAT; in assay [2] (setting [5])) were 0.035 µM and 8.8 µM, respectively. Further, in assay [1], the “potency relative to MPH in drug discrimination” value was “about three times more potent than MPH”.
As for `COC(=O)C(c1ccccc1)C1CCCCN1` (stereo not shown) [MPH, methyl-2-phenyl-2-(piperidin-2-yl)acetate], the figures for the IC50 in assay [3] and in assay [2] were 0.131 ± 0.0142 µM and over 10 µM, respectively. Also, in assay [4], the “potency relative to (±)-threo-4F-MPH at the norepinephrine transporter” value was “around 2.5”.
Regarding `COC(=O)[C@H](c1ccc(F)cc1)[C@H]1CCCCN1` (racemic) [(±)-erythro-4F-MPH, 4-Fluoromethylphenidate], in assay [2] (setting [5]), the 50% inhibitory concentration (IC50) was over 10 µM.
